Test results reported in US12589160B2, “Peptide-derived therapeutics targeting KDM5C for the treatment of cancer” (NUVOBIO CORPORATION, priority 2019, dated 2026).
pIC50: −log10 of the molar value.

Assays:
[1] = tested on: H3K4me3 levels in HCT 116 cells; assay: Histone H3K4me3 status by western blot of histone extracts; format: cell-based; conditions: for global H3K4me3 levels: HCT 116
Protocol: FIG. 9. Comparison of KDM5 inhibitors, EP4-TAT and CPI-455. […] (B) Relative H3K4me3 levels were monitored in histone extracts from HCT 116 cells.
The EP4-TAT inhibitor from all the above experiments were tested for histone methylation status in HCT 116 cells. 3×10^6 cells were plated in 10 cm dish and incubated overnight. Cells were then treated with the inhibitors at various concentrations (0.001 to 15 μM). Cells (5×10^6 cells/mL), 24 hr of post dosing, were collected in 15 mL falcon tube and centrifuged at 300×g for 10 min. The supernatant was discarded and the cells are washed with iced cold PBS. The cell pellet is flash-frozen in liquid nitrogen and stored at −80° C. Histone isolation is done using standard protocol. To summarize, cells were re-suspended in 1 mL hypotonic lysis buffer (10 mM Tris-HCl pH 8, 1 mM KCl, 1.5 mM MgCl2 and 1 mM DTT) containing protease inhibitor. The cells were transferred to 1.5 mL tube and incubated for 30 min on rotor at 4° C. to promote hypotonic swelling and lysis. The intact nuclei are collected by centrifugation at 10,000×g for 10 min in a cooled tabletop centrifuge. The supernatant is entirely discarded and pellets were re-suspended completely in 600 μL 0.4N H2SO4 and incubated overnight on rotor at 4° C. The nuclear debris were removed by centrifugation at 16,000×g for 10 min. The supernatant containing the histones were transferred to a fresh 1.5 mL tube and precipitated by adding 195 μL TCA (33%) drop by drop. The reaction is incubated at 4° C. overnight under rotation. The histones were pelleted by centrifugation at 16,000×g for 10 min. After complete removal of the supernatant carefully, the histone pellets were washed with ice-cold acetone to remove the left-over acids without disturbing the pellet. Finally, the pellets were air dried for 30 min at room temperature. The histone pellets were dissolved in 100 μL milliQ water and stored frozen at −20° C. Samples of 1, 3 and 5 μL of histones were separated on 15% SDS-PAGE gel and stained with Coomassie Brilliant Blue and characterized on the quality and concentration of the histone. The locations of the linker histone H1 and the core histones H3, H2B, H2A and H4 were noted.
For western blot, of total of 1 μL of histones were separated on 15% SDS-PAGE and transferred overnight at 15V on PVDF membrane. Following blocking with 5% nonfat dry milk in 1×TBST for 1 hr, the membrane containing histones lanes treated with inhibitor, were probed with H3K4Me3 (Abcam) primary antibody (1:2500) in 1×PBST. Both the membranes were incubated overnight at 4° C. under rotation. […] Histone proteins were detected by Supersignal™ West Pico PLUS Chemiluminescent substrate (ThermoFisher Scientific) using the Chemidoc XRS+ imaging system (BioRad). […]

KDM5 = conditions: given as 'in vivo'; Vinogradova et al., 2016; read-out: IC50 of KDM5 inhibition; cited from earlier work
HCT 116 cells [2] = assay: Cell viability, resazurin reduction assay; format: cell-based; conditions: for loss of cell viability: HCT 116, 10 μM, cell penetrating peptide by itself
Protocol: (§1) FIG. 7. Cellular EP4 inhibitor delivery and viability. (A) Diagrammatic representation of EP4 inhibitor peptide showing N-terminally tagged 6-carboxyfluorescein and C-terminally tagged TAT cell delivery peptide. (B) Immunofluorescence microscopy showing internalization of EP4-TAT peptide (shown in green) to HCT 116 cells imaged 24 hr post-treatment with inhibitor. (C) Cell viability following 10 μM treatment of EP4 peptide conjugated to cell penetrating peptides, TAT, PR9 and CPP.
Cell viability was measured using the Resazurin reduction assay which indirectly quantifies living cells through the metabolically active reduction of resazurin to fluorescent resorufin. This assay allows to maintain cells viability and, therefore, to monitor cell growth with time. Exponentially growing cells were seeded into 96-well plates at the density of 2.0×10^4 cells/mL and incubated overnight. The media was replaced with fresh media prior to inhibitor treatment. Cells were treated with […] of inhibitor peptide for 24 hr. The inhibitor peptide was diluted in the cell culture media (DMEM −/−) in the absence of serum from a 5 mM stock. All the treated cells were compared to the control (TAT alone peptide with equivalent quantity of DMSO) which were considered as 100% viable. One set of wells also prepared with medium only for background subtracting and instrument gain adjustment. The experiments were carried out in triplicate and expressed as mean±SD. A 10% resazurin solution (0.15 mg/ml stock dissolved in PBS, filter sterilized and stored protected from light at 4° C.) was then added to each well and incubated for 2 hr. The fluorescence was recorded using a multiwell plate reader (Perkin Elmer) at Ex. 560 nm and Em. 610 nm.
The cell penetrating peptide tagged EP4 inhibitors are then tested for loss of cell viability on colorectal carcinoma HCT 116 cell line at a 10 μM dose (FIG. 7C).

HCT 116 cells [3] = assay: Flow cytometry, PI staining (subG1 / apoptosis); format: cell-based; conditions: HCT 116, 2 μM
Protocol: FIG. 8. Global cell cycle distribution in EP4-TAT treated HCT 116 cells. EP4-TAT increases global H3K4me3 levels in HCT 116 cells. (A) Two-parameter flow cytometric analysis of BrdU incorporation and DNA content was performed following a 24 hr exposure of 2 μM and 5 μM EP4-TAT to HCT 116 cells. (B) The proportion of propidium iodine stained cells were represented in each phase of the cell cycle cell cycle and (C) dose-response correlation of BrdU positive cells were represented. These values are expressed relative to untreated controls. Each value in B, C represents the mean (+/−SEM) determined from 3 independent experiments.
A total of 0.3×10^6 HCT 116 cells were plated in 6 well-plate and incubated overnight. Cells were treated with the inhibitor, DMSO and TAT alone controls. For each condition, approximately 1×10^6 HCT 116 cells were collected along with the floating cells in the media by centrifugation at 300×g for 10 min. The cells were then washed with 5 mL of ice-cold PBS and re-suspended in 0.5 mL of ice-cold PBS. […] The PI-treated cells were incubated at 37° C. for 30 min and then analyzed by a flow cytometry (BD Accuri™ C6 Plus). […]
To determine whether loss in cell viability was associated with increased apoptosis, HCT 116 cells were treated with 2 μM of EP4-TAT and analyzed by PI staining.

NCI60 cancer cell lines = assay: NCI60 cancer panel screen (SRB staining); format: cell-based; conditions: 48 h, normalized to TAT-alone; SNB-75, A498, RXF393, UO-31, HOP-92, NCI-226, EKVX
Protocol: FIG. 10. NCI60 cancer panel screen of EP4-TAT. EP4-TAT and TAT-alone peptides were sent to the National Cancer Institute—Developmental Therapeutics program for screening effect on cell growth on the NCI60 cancer panel. Cell growth was monitored post-treatment with peptide in a dose-responsive manner (n=4). EP4-TAT effects were normalized to TAT-alone effects to control for delivery peptide. Following drug addition, the plates were incubated for an additional 48 hours at 37° C., 5% CO2, 95% air, and 100% relative humidity. Cell growth was monitored by Sulforhodamine B (SRB) staining. GI50 values are defined at the concentration of EP4-TAT that decreased cell growth by 50%.
Following the receipt at the NCI, cell-active EP4-TAT was be tested for its effects on cell viability in a dose-responsive manner in the complete panel. The effect of EP4-TAT on cell viability was carried out using Sulforhodamine B (SRB) staining in all 60 cell lines (n=4). Using several measurements [time zero (Tz), control growth (C), and growth at the five inhibitor concentrations (Ti)], the percentage growth will be calculated at each inhibition concentration. […]

HCT 116 cells [4] = assay: Internalization of FITC-labelled peptides (fluorescence microscopy); format: cell-based; conditions: HCT 116, 10 μM, 24 hr
Protocol: as §1
To evaluate the internalization of FITC-labelled peptides, exponentially growing HCT 116 cells were seeded on 6 well plate at a density of 2×10^5 cells per well and incubated overnight. After overnight incubation, the media (DMEM with penstrep and 10% FBS) was replaced with fresh media supplemented with 10 μM FITC-labelled inhibitor peptides. Following the incubation (24 hr), cells were washed three times with ice cold PBS to remove the excess extracellular complexes. Cells were then stained with Hoechst dye (1:2000 dilution from 10 mg/mL stock in PBS) directly adding sufficient staining solution to the well. Cells were incubated for 10 min with the dye, protected from light. The staining solution is discarded and the cells were washed 3 times with PBS and imaged directly under fluorescent microscope.
Our EP4 KDM5C inhibitor peptide were tested for a decrease in cell viability. […]

Substance: CPI-455 [reference compound]
- global H3K4me3 levels [1]: increase global H3K4me3 levels
- pIC50 (KDM5): ~4.60

Substance: FFLIPKGRRRRRRRRR [PR9]
- loss of cell viability (HCT 116 cells [2]): 30%

Substance: RRWRRWRRWRR [CPP, cell penetrating peptide, chemically synthesized, cationic]
- loss of cell viability (HCT 116 cells [2]): 50%

Substance: TEDSKTHHH(SEQ ID NO: 4){6-aminohexanoic acid}GRKKRRQRRRPPQ(SEQ ID NO: 45) (TEDSKTHHHGRKKRRQRRRPPQ) [EP4-TAT]
- loss of cell viability (comparison of cell penetrating peptide tags) (HCT 116 cells [2]; HCT 116, 10 μM dose): maximum and consistent loss of cell viability
- percentage of subG1 peak (HCT 116 cells [3]): 52.8%
- global H3K4me3 levels [1]: increase global H3K4me3 levels
- demethylation of histone H3K4 tri-methylation ([1]; HCT 116, 25 nM): inhibited
- cellular KDM5C inhibition compared with CPI-455 ([1]; HCT 116, relative H3K4me3 levels): more effective
- growth inhibitory (GI50) effect (NCI60 cancer cell lines): growth inhibitory (GI50) effect in 7 lines
- cellular internalization (HCT 116 cells [4]): internalization
